The target in one data set is Histone deacetylase 1 (Homo sapiens, UniProt Q13547). In words: Inhibition of recombinant human HDAC1 using Ac-LGK(Ac)-AMC as substrate preincubated for 30 mins followed by substrate addition and measured after 90 mins by fluorescence based assay.
A short description of data set [1]: Metabolic stability in Sprague-Dawley rat liver microsomes assessed as half life at 5 uM preincubated for 5 mins followed by NADPH addition and measured after 60 mins by LCMS analysis. The settings on record: time 65 min. It is filed as ADME, Microsome.
Data set [2] addresses Class 1 histone deacetylase (Homo sapiens, UniProt Q13547+O15379+Q92769+Q9BY41). Description: Inhibition of Class 1 histone deacetylase in human THP-1 cells assessed as accumulation of Histone H4 acetylation levels at 1 to 10 uM incubated for 3 hrs by western blot analysis. It is filed as cell-based. The settings on record: dose 1-10 µM.
The next data set addresses T1, Histone deacetylase 7 (Homo sapiens, UniProt Q8WUI4).
T1 sequence (Q8WUI4 whole entry): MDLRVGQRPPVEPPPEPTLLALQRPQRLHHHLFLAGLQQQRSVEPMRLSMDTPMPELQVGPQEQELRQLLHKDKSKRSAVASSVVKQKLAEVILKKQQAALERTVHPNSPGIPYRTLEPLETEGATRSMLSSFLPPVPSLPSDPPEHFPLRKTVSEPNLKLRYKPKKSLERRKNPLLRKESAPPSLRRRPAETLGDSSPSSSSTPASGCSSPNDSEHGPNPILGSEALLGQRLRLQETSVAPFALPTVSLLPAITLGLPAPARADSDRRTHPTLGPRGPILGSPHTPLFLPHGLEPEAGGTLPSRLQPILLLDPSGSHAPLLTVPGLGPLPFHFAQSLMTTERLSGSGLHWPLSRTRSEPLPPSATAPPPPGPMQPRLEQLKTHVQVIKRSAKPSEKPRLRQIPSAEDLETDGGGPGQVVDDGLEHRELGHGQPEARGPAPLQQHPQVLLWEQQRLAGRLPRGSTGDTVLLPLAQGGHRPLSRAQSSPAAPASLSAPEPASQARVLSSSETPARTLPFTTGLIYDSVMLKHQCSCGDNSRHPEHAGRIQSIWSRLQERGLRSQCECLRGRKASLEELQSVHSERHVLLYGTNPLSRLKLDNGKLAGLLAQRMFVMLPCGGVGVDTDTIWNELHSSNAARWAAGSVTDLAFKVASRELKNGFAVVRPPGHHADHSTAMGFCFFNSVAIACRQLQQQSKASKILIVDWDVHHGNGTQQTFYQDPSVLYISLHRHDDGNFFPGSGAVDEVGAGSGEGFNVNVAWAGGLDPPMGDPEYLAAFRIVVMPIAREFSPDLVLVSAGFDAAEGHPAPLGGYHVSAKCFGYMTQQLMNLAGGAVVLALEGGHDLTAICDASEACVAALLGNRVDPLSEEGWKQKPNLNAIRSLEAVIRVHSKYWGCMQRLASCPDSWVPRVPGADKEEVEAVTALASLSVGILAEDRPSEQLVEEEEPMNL

As usually defined, the IC50 is the concentration needed to halve the response being measured. The half-life is the time in which the quantity being followed falls by half.

The source made the active and inactive calls. No cut-off for these calls is given here. Bounds are passed on as bounds.

Sequence of Histone deacetylase 1 (Q13547 whole entry): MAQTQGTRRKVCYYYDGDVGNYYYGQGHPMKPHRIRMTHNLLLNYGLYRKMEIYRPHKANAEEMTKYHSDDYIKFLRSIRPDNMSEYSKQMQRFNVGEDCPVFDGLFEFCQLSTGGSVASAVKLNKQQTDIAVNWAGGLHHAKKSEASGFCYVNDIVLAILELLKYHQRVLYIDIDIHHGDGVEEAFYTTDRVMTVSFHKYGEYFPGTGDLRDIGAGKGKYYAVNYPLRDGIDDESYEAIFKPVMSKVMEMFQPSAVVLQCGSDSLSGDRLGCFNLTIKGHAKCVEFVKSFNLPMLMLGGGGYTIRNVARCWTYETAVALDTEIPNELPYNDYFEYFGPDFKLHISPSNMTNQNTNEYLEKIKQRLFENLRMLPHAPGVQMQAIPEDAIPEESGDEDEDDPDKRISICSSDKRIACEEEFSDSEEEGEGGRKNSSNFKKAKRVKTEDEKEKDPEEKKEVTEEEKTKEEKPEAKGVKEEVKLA
Description for Histone deacetylase 7: Inhibition of recombinant human HDAC7 using Ac-LGK(TFA)-AMC as substrate pre-incubated for 15 mins followed by substrate addition and measured after 60 mins by fluorescence based assay

As to `O=C(NO)c1ccc(CN2C(=O)c3ccccc3C2=O)cc1`, the IC50 on Histone deacetylase 1 came to 0.17 µM.

As to `O=C(NO)c1ccc(CN2Cc3ccccc3C2=O)cc1-c1ccccc1`, on Histone deacetylase 1, the IC50 was 10 µM. In data set [1], the half-life at 5 µM amounted to 2.82 h.

For the molecule `CC(C)[C@H](C(=O)Nc1ccc(C(=O)NO)cc1)c1ccccc1`, the inhibition entry in data set [2] is “Active”.

In the case of `O=C(O)c1cccc(C(CCCCN2C(=O)c3ccccc3C2=O)C(=O)NO)c1` (stereo not drawn), the IC50 at Histone deacetylase 1 and at Histone deacetylase 7 was 1.4 µM throughout.

For the molecule `O=C(NO)c1ccc(CN2C(=O)c3cccnc3C2=O)cc1-c1ccccc1`, on Histone deacetylase 1, the IC50 was greater than 100 µM.

Turning to `COc1ccc(CC(=O)NCCCCC(C(=O)NO)c2ccccc2)cc1` (stereo not drawn), the concentration for half-maximal inhibition (IC50) on Histone deacetylase 1 was determined as 10 µM; against Histone deacetylase 7 it was 1.7 µM.

On to `O=C(NCCCCC(C(=O)NO)c1ccccc1)c1ccccc1O` (stereo not drawn), for which the IC50 on Histone deacetylase 1 was greater than 10 µM; against Histone deacetylase 7, 1.9 µM.

`O=C(NO)[C@H](CCCCN1C(=O)c2ccccc2C1=O)c1ccccc1`: the IC50 on Histone deacetylase 1 turned out to be 20 µM.

With `O=C(NO)C(CCCCN1C(=O)c2ccccc2C1=O)c1ccccc1` (stereo not drawn), the half-maximal inhibitory concentration (IC50) on Histone deacetylase 1 turned out to be 26 µM. Moreover, in data set [1], the half-life at 5 µM was 0.533 h.

With `O=C(CCCCCCC(=O)Nc1ccccc1)NO` [VORINOSTAT], the half-life at 5 µM in data set [1] was 3.3 h.

Consider `O=C(NO)c1ccc(CN2C(=O)c3ccncc3C2=O)cc1-c1ccccc1`, for which, on Histone deacetylase 1, the 50% inhibitory concentration (IC50) was greater than 100 µM.

`O=C(O)c1ccccc1C(=O)NCc1ccc(C(=O)NO)c(-c2ccccc2)c1`: the IC50 on Histone deacetylase 1 is greater than 100 µM.

On Histone deacetylase 7, `O=C(NO)C(OCCCN1C(=O)c2ccccc2C1=O)c1ccccc1` (stereo not drawn) yielded an IC50 of 1.1 µM.

Turning to `O=C(NO)[C@@H](CCCCN1C(=O)c2ccccc2C1=O)c1ccccc1`, the IC50 at Histone deacetylase 1 came out at 19 µM.

For the molecule `Cc1ccc(C(=O)NO)c(-c2ccccc2)c1`, the IC50 on Histone deacetylase 1 was greater than 100 µM.

In the case of `O=C(NO)c1ccc(CN2C(=O)CCC2=O)cc1-c1ccccc1`, the half-maximal inhibitory concentration (IC50) on Histone deacetylase 1 is greater than 100 µM.

With `O=C(NCc1ccc(C(=O)NO)c(-c2ccccc2)c1)c1ccccc1F`, the IC50 at Histone deacetylase 1 was found to be 39 µM.

For the molecule `O=C(NO)C(OCCCN1C(=O)c2ccccc2C1=O)c1cccc(Cl)c1` (stereo not drawn), the IC50 on Histone deacetylase 7 amounted to 1.1 µM.

For the origin of these results see ChEMBL document CHEMBL4732198, “HDAC7 Inhibition by Phenacetyl and Phenylbenzoyl Hydroxamates” (J Med Chem, 2021).
